Reference: patent US11891415B2, “Depsipeptides and uses thereof” (NovoBiotic Pharmaceuticals, LLC, priority 2017, dated 2024)

Key:
[1] = tested on: S. aureus ATCC 33591; assay: Neutropenic mouse thigh infection model; type: in vivo; conditions: single dose of 50 mg/kg, thigh load at 26 hours
Protocol: The compound of Formula (III) was next evaluated in a neutropenic mouse thigh infection model against S. aureus ATCC 33591. For the study, mice challenged with S. aureus ATCC 33591 were intravenously administered two 5 mg/kg, 10 mg/kg, 20 mg/kg and 30 mg/kg doses of the compound of Formula (III) at 2 and 4 hours post-infection, or vancomycin as a single dose of 50 mg/kg as a control. The bacterial load in the thigh at 26 hours post-infection was measured.

[2] = tested on: MRSA ATCC 33591; assay: Mouse septicemia model; conditions: CD-1 female mice, MRSA ATCC 33591, 2.5 mg/kg intravenous one hour post infection

## CN[C@H](CC(C)C)C(=O)N[C@H]1C(=O)N[C@@H](CC(N)=O)C(=O)N[C@H]2C(=O)N[C@H]3C(=O)N[C@H](C(=O)N[C@H](C(=O)O)c4cc(O)cc(O)c4-c4cc3ccc4O)[C@H](O)c3ccc(c(Cl)c3)Oc3cc2cc(c3O[C@@H]2O[C@H](CO)[C@@H](O)[C@H](O)[C@H]2O[C@H]2C[C@](C)(N)[C@H](O)[C@H](C)O2)Oc2ccc(cc2Cl)[C@H]1O [vancomycin]
[1]
  CFU reduction from the 2 hour infection controls: 0.54 log10 CFU
  CFU reduction from the 26 hour infection controls: 3.65 log10 CFU
[2]
  survival: all survived
